Patent US10597388B2, “Pyridazinone herbicides” (FMC CORPORATION, priority 2014, dated 2020)

Tests used:
Assay in all cases: Test E greenhouse herbicide test, pre- and postemergence
Format in all cases: in vivo
[1] = system: beggarticks (hairy beggarticks, Bidens pilosa)
Summary of the method: (§1)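 Compounds in a non-phytotoxic solvent mixture with surfactant were applied preemergence to seeds in silt loam soil and postemergence to 2-18 cm plants (1- to 4-leaf stage) in peat-based medium. After 14 to 21 d in a greenhouse, injury was rated visually against untreated controls on a 0 (no effect) to 100 (complete control) scale.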

[2] = system: barnyardgrass (Echinochloa crus-galli)
Summary of the method: as §1

[3] = system: sandbur (southem sandbur, Cenchrus echinatus)
Summary of the method: as §1

[4] = system: foxtail, green (green foxtail, Setaria viridis); details: Preemergence
Summary of the method: as §1

[5] = system: nutsedge, yellow (yellow nutsedge, Cyperus esculentus); details: Preemergence
Summary of the method: as §1

[6] = system: velvetleaf (Abutilon theophrasti); details: Preemergence
Summary of the method: as §1

soybean (Glycine max) = system: soybean (Glycine max)
Summary of the method: as §1

[7] = system: horseweed (Conyza canadensis)
Summary of the method: as §1

[8] = system: dayflower (Virginia (VA) dayflower, Commelina virginica)
Summary of the method: as §1

[9] = system: foxtail, giant (giant foxtail, Setaria faberii); details: Preemergence
Summary of the method: as §1

[10] = system: panicum, fall (fall panicum, Panicum dichotomiflorum)
Summary of the method: as §1

[11] = system: johnsongrass (Sorghum halepense); details: Preemergence
Summary of the method: as §1

[12] = system: pigweed, palmer (palmer pigweed, Amaranthus palmeri)
Summary of the method: as §1

[13] = system: ragweed (common ragweed, Ambrosia elatior)
Summary of the method: as §1

corn (Zea mays) = system: corn (Zea mays)
Summary of the method: as §1

[14] = system: lambsquarters (Chenopodium album); details: Preemergence
Summary of the method: as §1

[15] = 62 g ai/ha, Postemergence, scale 0 to 100 (0 no effect, 100 complete control)
[16] = 62 g ai/ha, Preemergence, scale 0 to 100 (0 no effect, 100 complete control)
[17] = 125 g ai/ha, Postemergence, scale 0 to 100 (0 no effect, 100 complete control)
[18] = 125 g ai/ha, Preemergence, scale 0 to 100 (0 no effect, 100 complete control)
[19] = 250 g ai/ha, Postemergence, scale 0 to 100 (0 no effect, 100 complete control)
[20] = Postemergence, 31 g ai/ha, visual, scale 0 no effect to 100 complete control
[21] = Preemergence, 31 g ai/ha, scale 0 to 100, 0 no effect, 100 complete control
[22] = Preemergence, 250 g ai/ha, visual, scale 0 no effect to 100 complete control
[23] = 62 g ai/ha, scale 0 to 100 (0 no effect, 100 complete control)
[24] = 125 g ai/ha, scale 0 to 100 (0 no effect, 100 complete control)
[25] = 31 g ai/ha, scale 0 to 100, 0 no effect, 100 complete control
[26] = 250 g ai/ha, visual, scale 0 no effect to 100 complete control

Cc1ccc2sc(Br)c(-c3c(O)c(C)nn(C)c3=O)c2c1 [Compound 79]
Plant response rating, Beggarticks [1, 15]: 100 | Plant response rating, Beggarticks [1, 16]: 100 | Plant response rating, Beggarticks [1, 17]: 100 | Plant response rating, Beggarticks [1, 18]: 100 | Plant response rating, Beggarticks [1, 19]: 100 | Plant response rating, Beggarticks [1, 20]: 100 | Plant response rating, Beggarticks [1, 21]: 100 | Plant response rating, Beggarticks [1, 22]: 100 | Plant response rating, Barnyardgrass [2, 15]: 15 | Plant response rating, Barnyardgrass [2, 16]: 30 | Plant response rating, Barnyardgrass [2, 17]: 20 | Plant response rating, Barnyardgrass [2, 18]: 40 | Plant response rating, Barnyardgrass [2, 19]: 20 | Plant response rating, Barnyardgrass [2, 20]: 15 | Plant response rating, Barnyardgrass [2, 21]: 30 | Plant response rating, Barnyardgrass [2, 22]: 50 | Plant response rating, Sandbur [3, 15]: 30 | Plant response rating, Sandbur [3, 16]: 70 | Plant response rating, Sandbur [3, 17]: 50 | Plant response rating, Sandbur [3, 18]: 80 | Plant response rating, Sandbur [3, 19]: 65 | Plant response rating, Sandbur [3, 20]: 20 | Plant response rating, Sandbur [3, 21]: 60 | Plant response rating, Sandbur [3, 22]: 75 | Plant response rating, Foxtail, Green [4, 23]: 70 | Plant response rating, Foxtail, Green [4, 24]: 80 | Plant response rating, Foxtail, Green [4, 25]: 55 | Plant response rating, Foxtail, Green [4, 26]: 90 | Plant response rating, Nutsedge, Yellow [5, 23]: 60 | Plant response rating, Nutsedge, Yellow [5, 24]: 65 | Plant response rating, Nutsedge, Yellow [5, 25]: 50 | Plant response rating, Nutsedge, Yellow [5, 26]: 75 | Plant response rating, Velvetleaf [6, 23]: 80 | Plant response rating, Velvetleaf [6, 24]: 95 | Plant response rating, Velvetleaf [6, 25]: 70 | Plant response rating, Velvetleaf [6, 26]: 100 | Plant response rating, Soybean (soybean (Glycine max); [15]): 10 | Plant response rating, Soybean (soybean (Glycine max); [16]): 50 | Plant response rating, Soybean (soybean (Glycine max); [17]): 15 | Plant response rating, Soybean (soybean (Glycine max); [18]): 40 | Plant response rating, Soybean (soybean (Glycine max); [19]): 10 | Plant response rating, Soybean (soybean (Glycine max); [20]): 0 | Plant response rating, Soybean (soybean (Glycine max); [21]): 40 | Plant response rating, Soybean (soybean (Glycine max); [22]): 50 | Plant response rating, Horseweed [7, 15]: 95 | Plant response rating, Horseweed [7, 16]: 100 | Plant response rating, Horseweed [7, 17]: 95 | Plant response rating, Horseweed [7, 18]: 100 | Plant response rating, Horseweed [7, 19]: 90 | Plant response rating, Horseweed [7, 20]: 90 | Plant response rating, Horseweed [7, 21]: 100 | Plant response rating, Horseweed [7, 22]: 100 | Plant response rating, Dayflower, VA [8, 15]: 50 | Plant response rating, Dayflower, VA [8, 16]: 70 | Plant response rating, Dayflower, VA [8, 17]: 60 | Plant response rating, Dayflower, VA [8, 18]: 65 | Plant response rating, Dayflower, VA [8, 19]: 65 | Plant response rating, Dayflower, VA [8, 20]: 50 | Plant response rating, Dayflower, VA [8, 21]: 50 | Plant response rating, Dayflower, VA [8, 22]: 70 | Plant response rating, Foxtail, Giant [9, 23]: 70 | Plant response rating, Foxtail, Giant [9, 24]: 85 | Plant response rating, Foxtail, Giant [9, 25]: 60 | Plant response rating, Foxtail, Giant [9, 26]: 90 | Plant response rating, Panicum, Fall [10, 15]: 60 | Plant response rating, Panicum, Fall [10, 16]: 70 | Plant response rating, Panicum, Fall [10, 17]: 60 | Plant response rating, Panicum, Fall [10, 18]: 80 | Plant response rating, Panicum, Fall [10, 19]: 75 | Plant response rating, Panicum, Fall [10, 20]: 55 | Plant response rating, Panicum, Fall [10, 21]: 80 | Plant response rating, Panicum, Fall [10, 22]: 90 | Plant response rating, Johnsongrass [11, 25]: 70 | Plant response rating, Johnsongrass [11, 26]: 65 | Plant response rating, Pigweed, Palmer [12, 15]: 35 | Plant response rating, Pigweed, Palmer [12, 16]: 70 | Plant response rating, Pigweed, Palmer [12, 17]: 40 | Plant response rating, Pigweed, Palmer [12, 18]: 70 | Plant response rating, Pigweed, Palmer [12, 19]: 75 | Plant response rating, Pigweed, Palmer [12, 20]: 40 | Plant response rating, Pigweed, Palmer [12, 21]: 75 | Plant response rating, Pigweed, Palmer [12, 22]: 75 | Plant response rating, Ragweed [13, 15]: 98 | Plant response rating, Ragweed [13, 16]: 100 | Plant response rating, Ragweed [13, 17]: 95 | Plant response rating, Ragweed [13, 18]: 100 | Plant response rating, Ragweed [13, 19]: 100 | Plant response rating, Ragweed [13, 20]: 90 | Plant response rating, Ragweed [13, 21]: 100 | Plant response rating, Ragweed [13, 22]: 100 | Plant response rating, Corn (corn (Zea mays); [15]): 0 | Plant response rating, Corn (corn (Zea mays); [16]): 0 | Plant response rating, Corn (corn (Zea mays); [17]): 0 | Plant response rating, Corn (corn (Zea mays); [18]): 0 | Plant response rating, Corn (corn (Zea mays); [19]): 0 | Plant response rating, Corn (corn (Zea mays); [20]): 0 | Plant response rating, Corn (corn (Zea mays); [21]): 0 | Plant response rating, Corn (corn (Zea mays); [22]): 20 | Plant response rating, Lambsquarters [14, 23]: 100 | Plant response rating, Lambsquarters [14, 24]: 100 | Plant response rating, Lambsquarters [14, 25]: 100 | Plant response rating, Lambsquarters [14, 26]: 100
